Laboratory results published in US9000153B2, “Imidazo[4,5-c]quinolines as DNA-PK inhibitors” (Merck Patent GmbH, priority 2010, dated 2015).

What follows are compounds tested against DNA-PK (Homo sapiens (Human), UniProt P78527) (assay: DNA-PK/biochemical assay (FlashPlate kinase assay)). Details: 5 μM ATP, 90 min, room temperature.
Protocol: The kinase assay was carried out in streptavidin-coated […] microtitre FlashPlates®. To this end, 1.5 μg of the DNA-PK/protein complex and 100 ng of biotinylated substrate, such as, for example, PESQEAFADLWKK biotin-NH2 (“biotin-DNA-PK peptide”), in a total volume of 36.5 μl (34.25 mM HEPES/KOH, 7.85 mM Tris-HCl, 68.5 mM KCl, 5 μM ATP, 6.85 mM MgCl2, 0.5 mM EDTA, 0.14 mM EGTA, 0.69 mM DTT, pH 7.4), were incubated at room temperature for 90 min with 500 ng of DNA from calf thymus, 0.1 μCi of 33P-ATP and 1.8% of DMSO per well with or without the test compound. The reaction was stopped using 50 μl/well of 200 mM EDTA. After incubation for a further 30 min at room temperature, the liquid was removed. Each well was washed three times with 100 μl of 0.9% sodium chloride solution. A non-specific reaction (blank value) was determined using 10 μM of a proprietary kinase inhibitor. The radioactivity measurement was carried out by means of a TopCount. IC50 values were calculated in RS1 (Kashishian et al. (2003) Molecular Cancer Therapeutics 1257).

Compound	IC50 [nM]
COc1cc2ncc3c(c2cc1OCc1cccs1)n(-c1ccc(C#N)cc1F)c(=O)n3C [Compound 14, 3-Fluoro-4-(7-methoxy-3-methyl-2-oxo-8-(thiophen-2-ylmethoxy)-2,3-dihydroimidazo[4,5-c]-quinolin-1-yl)benzonitrile]	< 100
COc1cc2ncc3c(c2cc1OCc1ccsc1)n(-c1c(F)cc(C#N)cc1F)c(=O)n3C [Compound 26, 3,5-Difluoro-4-(7-methoxy-3-methyl-2-oxo-8-(thiophen-3-ylmethoxy)-2,3-dihydroimidazo-[4,5-c]quinolin-1-yl)benzonitrile]	< 100
COc1cc2ncc3c(c2cc1OCc1ccccc1)n(-c1ccc(C#N)cc1)c(=O)n3C [Compound 7, 4-(8-Benzyloxy-7-methoxy-3-methyl-2-oxo-2,3-dihydro-imidazo[4,5-c]quinolin-1-yl)-benzonitrile]	< 100
COc1cc2ncc3c(c2cc1/C=C/c1ccccc1)n(-c1ccc(C#N)cc1F)c(=O)n3C [Compound 43, 3-Fluoro-4-[7-methoxy-3-methyl-2-oxo-8-((E)-styryl)-2,3-dihydroimidazo[4,5-c]quinolin-1-yl]benzonitrile]	100 to 500
COc1cc2ncc3c(c2cc1-c1cccnc1)n(-c1ccc(C#N)cc1F)c(=O)n3C [Compound 33, 3-Fluoro-4-(7-methoxy-3-methyl-2-oxo-8-pyridin-3-yl-2,3-dihydro-imidazo[4,5-c]quinolin-1-yl)-benzonitrile]	< 100
COc1cc2ncc3c(c2cc1OCc1cccs1)n(-c1c(F)cc(C#N)cc1F)c(=O)n3C [Compound 28, 3,5-Difluoro-4-(7-methoxy-3-methyl-2-oxo-8-(thiophen-2-ylmethoxy)-2,3-dihydroimidazo-[4,5-c]quinolin-1-yl)benzonitrile]	< 100
COc1cc2ncc3c(c2cc1-c1ccnn1C)n(-c1ccc(C#N)cc1F)c(=O)n3C [Compound 38, 3-Fluoro-4-[7-methoxy-3-methyl-8-(2-methyl-2H-pyrazol-3-yl)-2-oxo-2,3-dihydroimidazo[4,5-c]-quinolin-1-yl)benzonitrile]	100 to 500
COc1cc2ncc3c(c2cc1-c1cn[nH]c1)n(-c1ccc(C#N)cc1F)c(=O)n3C [Compound 37, 3-Fluoro-4-[7-methoxy-3-methyl-2-oxo-8-(1H-pyrazol-4-yl)-2,3-dihydroimidazo[4,5-c]quinolin-1-yl)benzonitrile]	< 100
COc1cc2ncc3c(c2cc1-c1cc(C(F)(F)F)nn1C)n(-c1ccc(C#N)cc1F)c(=O)n3C [Compound 40, 3-Fluoro-4-[7-methoxy-3-methyl-8-(2-methyl-5-trifluoromethyl-2H-pyrazol-3-yl)-2-oxo-2,3-dihydro-imidazo[4,5-c]quinolin-1-yl]-benzonitrile]	100 to 500
COc1cc2ncc3c(c2cc1-c1cnc2ccccc2c1)n(-c1ccc(C#N)cc1F)c(=O)n3C [Compound 35, 3-Fluoro-4-(7-methoxy-3-methyl-2-oxo-8-quinolin-3-yl-2,3-dihydroimidazo[4,5-c]quinolin-1-yl)benzonitrile]	< 100
COc1cc2ncc3c(c2cc1OC(C(N)=O)c1ccc(F)cc1)n(-c1c(F)cc(C#N)cc1F)c(=O)n3C (stereo not drawn) [Compound 25, 2-[1-(4-Cyano-2,6-difluoro-phenyl)-7-methoxy-3-methyl-2-oxo-2,3-dihydro-1H-imidazo-[4,5-c]quinolin-8-yloxy]-2-(4-fluorophenyl)acetamide]	< 100
COc1cc2ncc3c(c2cc1OCc1ccc(F)c(Cl)c1)n(-c1ccc(C#N)cc1F)c(=O)n3C [Compound 24, 4-[8-(3-Chloro-4-fluorobenzyloxy)-7-methoxy-3-methyl-2-oxo-2,3-dihydro-imidazo[4,5-c]quinolin-1-yl]-3-fluorobenzonitrile]	< 100

More lines, now with the values ahead:

IC50 [nM]	Compound
< 100	COC(=O)n1c(=O)n(-c2ccc(C#N)cc2F)c2c3cc(OCc4ccccc4)c(OC)cc3ncc21 [Compound 12, Methyl 8-benzyloxy-1-(4-cyano-2-fluorophenyl)-7-methoxy-2-oxo-1,2-dihydroimidazo[4,5-c]-quinoline-3-carboxylate]
< 100	COc1cc2ncc3[nH]c(=O)n(-c4ccc(C#N)cc4)c3c2cc1OC [Compound 1, 4-(7,8-Dimethoxy-2-oxo-2,3-dihydroimidazo[4,5-c]quinolin-1-yl)benzonitrile]
< 100	COc1cc2ncc3c(c2cc1OCc1ccccc1)n(-c1c(F)cc(C#N)cc1F)c(=O)n3C [Compound 11, 4-(8-Benzyloxy-7-methoxy-3-methyl-2-oxo-2,3-dihydro-imidazo[4,5-c]quinolin-1-yl)-3,5-difluorobenzonitrile]
< 100	COc1cc2ncc3c(c2cc1OC(C(N)=O)c1ccccc1)n(-c1ccc(C#N)cc1F)c(=O)n3C (stereo not drawn) [Compound 18, 2-[1-(4-Cyano-2-fluorophenyl)-7-methoxy-3-methyl-2-oxo-2,3-dihydro-1H-imidazo[4,5-c]-quinolin-8-yloxy]-2-phenyl-acetamide]
< 100	COc1cc2ncc3[nH]c(=O)n(-c4ccc(C#N)cc4)c3c2cc1OCc1ccccc1 [Compound 6, 4-(8-Benzyloxy-7-methoxy-2-oxo-2,3-dihydroimidazo-[4,5-c]quinolin-1-yl)-benzonitrile]
< 100	COc1cc2ncc3[nH]c(=O)n(-c4ccc(C#N)cc4F)c3c2cc1OCc1ccccc1 [Compound 8, 4-(8-Benzyloxy-7-methoxy-2-oxo-2,3-dihydroimidazo-[4,5-c]quinolin-1-yl)-3-fluorobenzonitrile]
< 100	COc1cc2ncc3c(c2cc1-c1ccn[nH]1)n(-c1ccc(C#N)cc1F)c(=O)n3C [Compound 39, 3-Fluoro-4-[7-methoxy-3-methyl-2-oxo-8-(2H-pyrazol-3-yl)-2,3-dihydroimidazo[4,5-c]quinolin-1-yl]benzonitrile]
< 100	COc1cc2ncc3c(c2cc1OCc1ccccc1Br)n(-c1ccc(C#N)cc1F)c(=O)n3C [Compound 21, 4-[8-(2-Bromobenzyloxy)-7-methoxy-3-methyl-2-oxo-2,3-dihydroimidazo[4,5-c]quinolin-1-yl]-3-fluorobenzonitrile]
< 100	COc1cc2ncc3c(c2cc1OCc1ccncc1)n(-c1ccc(C#N)cc1F)c(=O)n3C [Compound 20, 3-Fluoro-4-[7-methoxy-3-methyl-2-oxo-8-(pyridin-4-ylmethoxy)-2,3-dihydroimidazo[4,5-c]-quinolin-1-yl]benzonitrile]
< 100	COc1cc2ncc3c(c2cc1OCc1cncs1)n(-c1ccc(C#N)cc1F)c(=O)n3C [Compound 30, 3-Fluoro-4-[7-methoxy-3-methyl-2-oxo-8-(thiazol-5-ylmethoxy)-2,3-dihydroimidazo[4,5-c]-quinolin-1-yl)benzonitrile]
< 100	COc1cc2ncc3c(c2cc1OCc1ccsc1)n(-c1ccc(C#N)cc1F)c(=O)n3C [Compound 13, 3-Fluoro-4-(7-methoxy-3-methyl-2-oxo-8-(thiophen-3-ylmethoxy)-2,3-dihydroimidazo[4,5-c]-quinolin-1-yl)benzonitrile]
< 100	COc1cc2ncc3c(c2cc1/C=C/c1ccsc1)n(-c1ccc(C#N)cc1F)c(=O)n3C [Compound 41, 3-Fluoro-4-[7-methoxy-3-methyl-2-oxo-8-((E)-2-thiophen-3-yl-viniyl)-2,3-dihydroimidazo-[4,5-c]quinolin-1-yl]benzonitrile]
